# Measured values from PMC10669220, “In Vitro α-Glucosidase and α-Amylase Inhibition, Cytotoxicity and Free Radical Scavenging Profiling of the 6-Halogeno and Mixed 6,8-Dihalogenated 2-Aryl-4-methyl-1,2-dihydroquinazoline 3-Oxides” (Antioxidants, 2023).
# Key:
# [1] = test system: lung cancer (A549) cell line; experiment: MTT cytotoxicity assay, A549; details: for Cell viability percentage, A549: Table S3; for IC50: Homo sapiens, A549, read-out: IC50 A549
# [2] = target: T1, α-Glucosidase type 1 from baker's yeast (Saccharomyces cerevisiae, UniProt P53341); experiment: biochemical; details: IC50 α-Glucosidase, mean ± SD, triplicate; tested at 1, 5, 10, 25, 50 µM
# T1 construct: purchased Sigma Aldrich (Pty) Ltd. G5003
# T1 sequence (P53341 whole entry): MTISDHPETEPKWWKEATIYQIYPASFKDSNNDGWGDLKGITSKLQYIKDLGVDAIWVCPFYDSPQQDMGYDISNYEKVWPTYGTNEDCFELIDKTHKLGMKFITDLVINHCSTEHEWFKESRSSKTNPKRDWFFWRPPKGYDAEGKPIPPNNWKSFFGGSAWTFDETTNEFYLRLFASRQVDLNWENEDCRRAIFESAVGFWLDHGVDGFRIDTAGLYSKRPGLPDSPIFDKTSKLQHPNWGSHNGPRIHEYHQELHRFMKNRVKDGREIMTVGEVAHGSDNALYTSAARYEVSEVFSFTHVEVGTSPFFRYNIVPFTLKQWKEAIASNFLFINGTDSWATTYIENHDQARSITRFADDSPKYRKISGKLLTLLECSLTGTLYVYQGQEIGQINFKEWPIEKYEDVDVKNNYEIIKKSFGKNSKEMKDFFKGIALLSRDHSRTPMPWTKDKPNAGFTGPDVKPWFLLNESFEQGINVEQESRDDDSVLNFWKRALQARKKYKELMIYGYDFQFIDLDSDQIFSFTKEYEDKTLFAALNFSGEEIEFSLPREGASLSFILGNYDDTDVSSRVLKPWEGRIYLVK
# Description: The assay was conducted in triplicate following a method described in our previous study. […] After pre-incubation, 17 µL of 2 mM PNP-G was added. The absorbances were recorded in a 96-well microplate at 400 nm using an Elisa plate reader (Varioskan Flash, ThermoFischer Scientific, Vantaa, Finland). The average values obtained from the readings were used to determine the IC50 and standard deviation values using a GraphPad Prism software (Version 8, GraphPad Software Inc., San Diego, CA, USA). The average values obtained from the absorbance readings were used to determine the IC50 and standard deviation values in GraphPad prism from nonlinear regression dose–response curves.
# human α-amylase = target: T2, human α-amylase (Homo sapiens, UniProt P04746); experiment: α-amylase inhibitor screening kit assay; type: biochemical; details: mean ± SD, triplicate; tested at 1, 5, 10, 25, 50 µM
# T2 construct: purchased Abcam ab283391
# T2 sequence (P04746 16-511): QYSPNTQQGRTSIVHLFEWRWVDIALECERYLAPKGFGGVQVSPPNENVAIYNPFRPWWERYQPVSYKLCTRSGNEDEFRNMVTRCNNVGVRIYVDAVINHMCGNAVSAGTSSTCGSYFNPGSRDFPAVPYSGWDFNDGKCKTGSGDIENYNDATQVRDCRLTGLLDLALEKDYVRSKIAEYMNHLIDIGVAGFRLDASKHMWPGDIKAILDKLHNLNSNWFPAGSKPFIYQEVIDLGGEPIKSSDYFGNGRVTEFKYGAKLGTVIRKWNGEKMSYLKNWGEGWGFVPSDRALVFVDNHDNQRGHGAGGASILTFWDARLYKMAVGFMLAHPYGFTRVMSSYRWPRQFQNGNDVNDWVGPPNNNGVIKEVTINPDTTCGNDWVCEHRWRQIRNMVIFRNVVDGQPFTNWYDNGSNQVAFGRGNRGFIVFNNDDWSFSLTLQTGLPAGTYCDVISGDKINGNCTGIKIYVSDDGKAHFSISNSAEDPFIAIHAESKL
# Description: The α-amylase assay was performed in triplicate, using a 96-well plate following the procedure recommended by the manufacturer as outlined in the α-amylase inhibitor Screening Kit (Catalogue No. ab283391; Abcam). […] The average values obtained from the absorbance readings were used to determine the IC50 and standard deviation values in GraphPad prism from nonlinear regression dose–response curves.
# [3] = NO free radical scavenging assay (sodium nitroprusside/Griess); details: mean ± SD; sodium nitroprusside, Griess reagent, 550 nm
# Description: The assay was conducted following the method described in our previous study. A mixture of 10 mM sodium nitroprusside (20 µL), phosphate buffer (5 µL) and the test compound (5 µL) were incubated at 25 °C in a 96-well plate for 2.5 h. After incubation, 20 µL of Griess reagent (1.00 g of sulfanilic acid + 0.10 g naphthylethylene diamine dihydrochloride) was added to the previous mixture and allowed to stand for 30 min. […] Each experiment was performed in triplicate, and the average was taken. The average obtained from the absorbance readings was used to calculate the IC50 values in GraphPad prism from nonlinear regression dose–response curves.
# [4] = test system: breast cancer (MCF-7) cell line; experiment: MTT cytotoxicity assay, MCF-7; details: for Cell viability percentage, MCF-7: Table S2; for IC50: Homo sapiens, MCF7, read-out: IC50 MCF-7
# Description: (§1) Cells were cultured in sterile Dulbecco’s Minimal Essential Medium (DMEM, Gibco) supplemented with 10% fetal bovine serum (FBS) and 1% penicillin-streptomycin solution. […] Cell counting was carried out using a handheld automated cell counter (Scapter 3.0™, Merck, Burlington, MA, USA) and seeded (1 × 10^4 cells/well) into a 96-well plate. After 24 h, the cells were treated with different concentrations (1, 5, 10, 25 and 50 µM) of the test compounds and reference standards prepared in DMEM. The MTT solution (20 μL) prepared in PBS (5 mg/mL) was added to all the wells, and the plates were incubated for 4 h, followed by 1 h incubation with 100 µL of dimethyl sulfoxide (DMSO) to dissolve the formazan crystals. Untreated cells and 5% DMSO were included in the experiment as negative controls. All experiments were performed in triplicate. The plates were read at 570 nm at a reference wavelength of 630 nm using an ELISA plate reader (Varioskan Flash, ThermoFisher Scientific, Vantaa, Finland). The percentage of cell viability was calculated using the following formula, Cell viability %=At/Ab×100 where At represents the absorbance value of test compound and Ab the absorbance value of the blank. […] The data were expressed as means ± SD.
# [5] = test system: human embryonic kidney (HEK293-T) cell line; experiment: MTT cytotoxicity assay, HEK293-T; details: Homo sapiens, HEK-293T, read-out: IC50 Hek293-T
# Description: as §1
# [6] = MTT cytotoxicity assay, HEK293-T; details: human, HEK293-T cells
# Description: as §1
# [7] = DPPH radical scavenging assay; details: mean ± SD; 45 min in the dark; 512 nm
# Description: The DPPH radical scavenging assay was conducted following the procedure described in our previous study. The test compounds and ascorbic acid at various concentrations (ranging from 0 µM to 50 µM) in DMSO were mixed with a solution of DPPH (0.20 mM) in methanol and incubated in the dark for 45 min. Five absorbance readings were recorded at 512 nm using an Elisa plate reader (Varioskan Flash, ThermoFisher Scientific, Vantaa, Finland). The experiment was carried out in triplicate, and averaged values from the absorbance readings were used to determine the IC50 and standard deviation values in GraphPad prism from nonlinear regression dose–response curves.
# [8] = target: superoxide dismutase (SOD); experiment: Superoxide dismutase (SOD) inhibitory assay (SOD assay kit-WST); type: biochemical; details: duplicate; 1-50 µM; 25 °C, 30 min; read-out: IC50 SOD inhibition
# Description: The antioxidant activity of the compounds 3a, 3c, 3f, 3i, 3l, 3n and 3p against superoxide radicals was assessed via enzymatic assay in vitro using the SOD assay kit-WST according to the manufacturer’s instructions (Sigma-Aldrich®). The reaction mixtures in the SOD kit were combined with 20 μL of working solution of the samples in a 96-well plate. Plates were gently shaken and then incubated at 25 °C for 30 min. The reference positive control, diphenyleneiodonium (DPI), and the compounds were tested at 01, 5, 10, 25 and 50 µM in duplicates. The inhibition activity of SOD on the reaction of […] generated the superoxide with a tetrazolium salt, which was then determined by measuring the absorbance of the mixtures at a wavelength of 450 nm using an Elisa plate reader (Varioskan Flash, ThermoFisher Scientific, Vantaa, Finland). The SOD activity values obtained used to calculate the percentage of inhibition. % SOD activity=ODx− ODy/ODx ×100% where ODx is the absorbance of the blank (untreated SOD) and ODy is the absorbance of the sample (treated SOD). All tests were performed in duplicate.
# [9] = test system: NO generated from nitric oxide synthase (NOS); experiment: Inhibitory activity against NO generated from NOS (EnzyChrom kit); type: biochemical; details: mean ± SD, 1-50 µM
# Description: A nitric oxide synthase (NOS) assay was performed following the procedure recommended by the manufacturer as outlined in the screening kit (Catalogue No. EINO-100; EnzyChrom). Various concentrations (1, 5, 10, 25 and 50 µM) of the compounds 3a, 3c, 3f, 3i, 3l, 3n and 3p and the reference standard, ascorbic acid, were prepared. The enzyme solution (12.5 U/mL NOS, 10 µL), assay buffer (25 µL) and test samples (5 µL) were incubated at room temperature for 15 min. After pre-incubation, 10 µL of reaction mix was added and incubated at 37 °C for 60 min. A 200 µL quantity of NO detection reagent was added, the detection reaction was run at 37 °C for 60 min, and absorbance was determined at a wavelength of 540 nm using an Elisa plate reader (Varioskan Flash, ThermoFisher Scientific, Vantaa, Finland). The average of three readings was used to calculate the NOS percentage inhibition using the following formula: % Inhibition=1−ΔOD Test Compd/ΔOD No Inhibitor ×100%
# The IC50 values and standard deviation values were determined from nonlinear regression dose–response curve and compared with the results in GraphPad prism.
Compound,"Cell viability percentage, A549 ([1]; Conc. 1 (µM per method))","Cell viability percentage, A549 ([1]; Conc. 5 (µM per method))","Cell viability percentage, A549 ([1]; Conc. 10 (µM per method))","Cell viability percentage, A549 ([1]; Conc. 25 (µM per method))","Cell viability percentage, A549 ([1]; Conc. 50 (µM per method))",IC50 [1],IC50 [2],IC50 (human α-amylase),melting point,IC50 [3],"Cell viability percentage, MCF-7 ([4]; Conc. 1 (µM per method))","Cell viability percentage, MCF-7 ([4]; Conc. 5 (µM per method))","Cell viability percentage, MCF-7 ([4]; Conc. 10 (µM per method))","Cell viability percentage, MCF-7 ([4]; Conc. 25 (µM per method))","Cell viability percentage, MCF-7 ([4]; Conc. 50 (µM per method))",IC50 [4],IC50 [5],viability at 1 µM [6],viability at 5 µM [6],viability at 10 µM [6],also measured
CC1=[N+]([O-])C(c2ccccc2)Nc2ccc(Br)cc21 (centres unmarked) [Compound 3a],"66,8354%","57,3068%","54,0443%","41,1182%","30,5771%",15.84 ± 0.07 µM,1.08 ± 0.02 µM,5.33 ± 0.01 µM,158 to 160 °C,27.34 ± 0.04 µM,"26,2641%","26,1144%","23,187%","22,3387%","19,6607%",10.83 ± 0.09 µM,40.18 ± 0.02 µM,69.4%,63.4%,57.8%,viability at 25 µM [6]: 55.1%; viability at 50 µM [6]: 19%; IC50 [7]: 4740 ± 27 nM; IC50 [8]: 15 ± 10 µM; IC50 [9]: 5.24 ± 0.002 µM
COc1ccc(C2Nc3ccc(I)cc3C(C)=[N+]2[O-])cc1 (centres unmarked) [Compound 3h],"87,7714%","86,9389%","64,8667%","56,0806%","38,362%",18.71 ± 0.16 µM,27.18 ± 0.02 µM,55.72 ± 0.02 µM,176 to 179 °C,10.05 ± 0.003 µM,"45,0932%","44,5775%","43,1304%","41,2009%","37,5083%",22.62 ± 0.12 µM,24.26 ± 0.04 µM,33.3%,32.6%,30.8%,viability at 25 µM [6]: 29.7%; viability at 50 µM [6]: 28.1%; IC50 [7]: 210 ± 57 nM
CC1=[N+]([O-])C(c2ccccc2)Nc2ccc(I)cc21 (centres unmarked) [Compound 3e],"74,9578%","64,338%","52,0419%","40,2408%","30,3184%",11.4 ± 0.12 µM,6.04 ± 0.01 µM,49.5 ± 0.06 µM,184 to 186 °C,52.38 ± 0.003 µM,"27,8443%","22,0559%","23,6194%","19,7272%","17,2488%",15.83 ± 0.14 µM,20.12 ± 0.06 µM,69.7%,60%,40%,viability at 25 µM [6]: 31.9%; viability at 50 µM [6]: 20%; IC50 [7]: 1100 ± 31 nM
